Measurements: US9975930B2, “Lantibiotic derivatives and process for their preparation” (NAICONS S.r.l., priority 2012, dated 2018)

Assays:
Assay in all cases: MIC by broth microdilution
[1] = tested on: E. faecalis VanS; assay type: cell-based; details: code 559, CAMHB broth
[2] = tested on: Candida albicans; assay type: cell-based; details: code 145; RPMI-1640; 48 hours
[3] = tested on: Staphylococcus aureus Met-R; assay type: cell-based; details: code 1400; CAMHB broth; 20-24 hours at 35° C.
[4] = tested on: Enterococcus faecium VanS; assay type: cell-based; details: code 568, CAMHB broth
[5] = tested on: E. faecium VanA; assay type: cell-based, Enterococcus faecium; details: code 569; CAMHB broth; 20-24 hours at 35° C.
[6] = tested on: S. aureus ATCC 25923; assay type: cell-based, Staphylococcus aureus; details: CAMHB broth; 20-24 hours at 35° C.
[7] = tested on: Staphylococcus aureus Met-S ATCC6538P; assay type: cell-based; details: code 100; CAMHB broth; 20-24 hours at 35° C.
[8] = tested on: S. aureus ATCC19636; assay type: cell-based, Staphylococcus aureus; details: code 819, CAMHB broth
[9] = tested on: S. pyogenes; assay type: cell-based; details: code 49; Todd Hewitt broth; 20-24 hours at 35° C.
[10] = tested on: E. faecalis VanA; assay type: cell-based; details: code 560; CAMHB broth; 20-24 hours at 35° C.

Structure (SMILES): CN[C@H](CC(C)C)C(=O)N[C@H]1C(=O)N[C@@H](CC(N)=O)C(=O)N[C@H]2C(=O)N[C@H]3C(=O)N[C@H](C(=O)N[C@H](C(=O)O)c4cc(O)cc(O)c4-c4cc3ccc4O)[C@H](O)c3ccc(c(Cl)c3)Oc3cc2cc(c3O[C@@H]2O[C@H](CO)[C@@H](O)[C@H](O)[C@H]2O[C@H]2C[C@](C)(N)[C@H](O)[C@H](C)O2)Oc2ccc(cc2Cl)[C@H]1O [VA, vancomycin]
- Minimal inhibitory concentration (MIC) ([1]; +serum 30% (bovine serum)): 2
- Minimal inhibitory concentration (MIC) ([1]; 20-24 hours at 35° C.): 1
- Minimal inhibitory concentration (MIC) [2]: >128
- Minimal inhibitory concentration (MIC) [3]: 0.5
- Minimal inhibitory concentration (MIC) ([4]; +serum 30% (bovine serum)): 2
- Minimal inhibitory concentration (MIC) ([4]; 20-24 hours at 35° C.): 2
- Minimal inhibitory concentration (MIC) [5]: >128
- Minimal inhibitory concentration (MIC) [6]: 1
- Minimal inhibitory concentration (MIC) [7]: 0.25
- Minimal inhibitory concentration (MIC) ([8]; +serum 30% (bovine serum)): 1
- Minimal inhibitory concentration (MIC) ([8]; 20-24 hours at 35° C.): 0.5
- Minimal inhibitory concentration (MIC) [9]: 0.25
- Minimal inhibitory concentration (MIC) [10]: 2
